According to patent US12544395B2, “Combination compositions comprising a beta-lactamase inhibitor and uses thereof” (priority 2018, dated 2026):

Assays:
Assay type in all cases: cell-based
[1] = tested on: E. coli 2806; experiment: Broth microdilution MIC (strain enzymes: SHV-12, TEM-1)
[2] = tested on: E. coli BAS 1; experiment: Broth microdilution MIC (strain enzymes: none detected)
[3] = tested on: E. coli ESBL 5; experiment: Broth microdilution MIC (strain enzymes: CTX-M15, TEM-1)
[4] = tested on: E. coli SI-M004; experiment: Broth microdilution MIC (strain enzymes: SHV-2, GES-12)
[5] = tested on: E. coli SI-V502; experiment: Broth microdilution MIC (strain enzymes: TEM-29, CTX-M15)
[6] = tested on: K. oxytoca 169219; experiment: Broth microdilution MIC (strain enzymes: TEM-1, CTXM-15)
[7] = tested on: K. oxytoca 176877; experiment: Broth microdilution MIC (strain enzymes: SHV-105)
[8] = tested on: K. pneumoniae 153239; experiment: Broth microdilution MIC (strain enzymes: SHV-11, TEM-1)
[9] = tested on: K. pneumoniae 170375; experiment: Broth microdilution MIC (strain enzymes: SHV-12, CTX-M15 and TEM-1)
[10] = tested on: K. pneumoniae 304487; experiment: Broth microdilution MIC (strain enzymes: SHV-12,TEM-1); conditions: with inhibitor at 1 μg/mL

CCC(=O)N[C@H]1Cc2cccc(C(=O)O)c2OB1O [Compound 2, (R)-2-hydroxy-3-propionamido-3,4-dihydro-2H-benzo[e][1,2]oxaborinine-8-carboxylic acid]
MIC of cefalexin (LEX) ([1]; with inhibitor at 1 μg/mL): 0.125 µg/mL | MIC of cefdinir (CDR) ([1]; with inhibitor at 1 μg/mL): 0.125 µg/mL | MIC of cefixime (CFM) ([1]; with inhibitor at 1 μg/mL): 0.25 µg/mL | MIC of ceftibuten (CTB) ([1]; with inhibitor at 1 μg/mL): 0.06 µg/mL | MIC of cefalexin (LEX) ([1]; with inhibitor at 2 μg/mL): 0.125 µg/mL | MIC of cefdinir (CDR) ([1]; with inhibitor at 2 μg/mL): 0.125 µg/mL | MIC of cefixime (CFM) ([1]; with inhibitor at 2 μg/mL): 0.125 µg/mL | MIC of ceftibuten (CTB) ([1]; with inhibitor at 2 μg/mL): 0.125 µg/mL | MIC of cefalexin (LEX) ([1]; with inhibitor at 4 μg/mL): 0.25 µg/mL | MIC of cefdinir (CDR) ([1]; with inhibitor at 4 μg/mL): 0.25 µg/mL | MIC of cefixime (CFM) ([1]; with inhibitor at 4 μg/mL): 0.125 µg/mL | MIC of ceftibuten (CTB) ([1]; with inhibitor at 4 μg/mL): 0.125 µg/mL | MIC of cefalexin (LEX) ([2]; with inhibitor at 1 μg/mL): 1 µg/mL | MIC of cefdinir (CDR) ([2]; with inhibitor at 1 μg/mL): 1 µg/mL | MIC of cefixime (CFM) ([2]; with inhibitor at 1 μg/mL): 8 µg/mL | MIC of ceftibuten (CTB) ([2]; with inhibitor at 1 μg/mL): 1 µg/mL | MIC of cefalexin (LEX) ([2]; with inhibitor at 2 μg/mL): 1 µg/mL | MIC of cefdinir (CDR) ([2]; with inhibitor at 2 μg/mL): 1 µg/mL | MIC of cefixime (CFM) ([2]; with inhibitor at 2 μg/mL): 2 µg/mL | MIC of ceftibuten (CTB) ([2]; with inhibitor at 2 μg/mL): 1 µg/mL | MIC of cefalexin (LEX) ([2]; with inhibitor at 4 μg/mL): 2 µg/mL | MIC of cefdinir (CDR) ([2]; with inhibitor at 4 μg/mL): 2 µg/mL | MIC of cefixime (CFM) ([2]; with inhibitor at 4 μg/mL): 1 µg/mL | MIC of ceftibuten (CTB) ([2]; with inhibitor at 4 μg/mL): 0.5 µg/mL | MIC of cefalexin (LEX) ([3]; with inhibitor at 1 μg/mL): 8 µg/mL | MIC of cefdinir (CDR) ([3]; with inhibitor at 1 μg/mL): 8 µg/mL | MIC of cefixime (CFM) ([3]; with inhibitor at 1 μg/mL): 1 µg/mL | MIC of ceftibuten (CTB) ([3]; with inhibitor at 1 μg/mL): 0.25 µg/mL | MIC of cefalexin (LEX) ([3]; with inhibitor at 2 μg/mL): 2 µg/mL | MIC of cefdinir (CDR) ([3]; with inhibitor at 2 μg/mL): 2 µg/mL | MIC of cefixime (CFM) ([3]; with inhibitor at 2 μg/mL): 1 µg/mL | MIC of ceftibuten (CTB) ([3]; with inhibitor at 2 μg/mL): 0.125 µg/mL | MIC of cefalexin (LEX) ([3]; with inhibitor at 4 μg/mL): 2 µg/mL | MIC of cefdinir (CDR) ([3]; with inhibitor at 4 μg/mL): 2 µg/mL | MIC of cefixime (CFM) ([3]; with inhibitor at 4 μg/mL): 0.5 µg/mL | MIC of ceftibuten (CTB) ([3]; with inhibitor at 4 μg/mL): 0.125 µg/mL | MIC of cefalexin (LEX) ([4]; with inhibitor at 1 μg/mL): 0.5 µg/mL | MIC of cefdinir (CDR) ([4]; with inhibitor at 1 μg/mL): 0.5 µg/mL | MIC of cefixime (CFM) ([4]; with inhibitor at 1 μg/mL): 4 µg/mL | MIC of ceftibuten (CTB) ([4]; with inhibitor at 1 μg/mL): 0.25 µg/mL | MIC of cefalexin (LEX) ([4]; with inhibitor at 2 μg/mL): 0.5 µg/mL | MIC of cefdinir (CDR) ([4]; with inhibitor at 2 μg/mL): 0.5 µg/mL | MIC of cefixime (CFM) ([4]; with inhibitor at 2 μg/mL): 4 µg/mL | MIC of ceftibuten (CTB) ([4]; with inhibitor at 2 μg/mL): 0.125 µg/mL | MIC of cefalexin (LEX) ([4]; with inhibitor at 4 μg/mL): 0.5 µg/mL | MIC of cefdinir (CDR) ([4]; with inhibitor at 4 μg/mL): 0.5 µg/mL | MIC of cefixime (CFM) ([4]; with inhibitor at 4 μg/mL): 1 µg/mL | MIC of ceftibuten (CTB) ([4]; with inhibitor at 4 μg/mL): 0.125 µg/mL | MIC of cefalexin (LEX) ([5]; with inhibitor at 1 μg/mL): 1 µg/mL | MIC of cefdinir (CDR) ([5]; with inhibitor at 1 μg/mL): 1 µg/mL | MIC of cefixime (CFM) ([5]; with inhibitor at 1 μg/mL): 0.25 µg/mL | MIC of ceftibuten (CTB) ([5]; with inhibitor at 1 μg/mL): 0.25 µg/mL | MIC of cefalexin (LEX) ([5]; with inhibitor at 2 μg/mL): 0.5 µg/mL | MIC of cefdinir (CDR) ([5]; with inhibitor at 2 μg/mL): 0.5 µg/mL | MIC of cefixime (CFM) ([5]; with inhibitor at 2 μg/mL): 0.5 µg/mL | MIC of ceftibuten (CTB) ([5]; with inhibitor at 2 μg/mL): 0.25 µg/mL | MIC of cefalexin (LEX) ([5]; with inhibitor at 4 μg/mL): 0.5 µg/mL | MIC of cefdinir (CDR) ([5]; with inhibitor at 4 μg/mL): 0.5 µg/mL | MIC of cefixime (CFM) ([5]; with inhibitor at 4 μg/mL): 0.25 µg/mL | MIC of ceftibuten (CTB) ([5]; with inhibitor at 4 μg/mL): 0.125 µg/mL | MIC of cefalexin (LEX) ([6]; with inhibitor at 1 μg/mL): 1 µg/mL | MIC of cefdinir (CDR) ([6]; with inhibitor at 1 μg/mL): 1 µg/mL | MIC of cefixime (CFM) ([6]; with inhibitor at 1 μg/mL): 0.25 µg/mL | MIC of ceftibuten (CTB) ([6]; with inhibitor at 1 μg/mL): 0.03 µg/mL | MIC of cefalexin (LEX) ([6]; with inhibitor at 2 μg/mL): 0.5 µg/mL | MIC of cefdinir (CDR) ([6]; with inhibitor at 2 μg/mL): 0.5 µg/mL | MIC of cefixime (CFM) ([6]; with inhibitor at 2 μg/mL): 0.125 µg/mL | MIC of ceftibuten (CTB) ([6]; with inhibitor at 2 μg/mL): 0.0149 µg/mL | MIC of cefalexin (LEX) ([6]; with inhibitor at 4 μg/mL): 0.5 µg/mL | MIC of cefdinir (CDR) ([6]; with inhibitor at 4 μg/mL): 0.5 µg/mL | MIC of cefixime (CFM) ([6]; with inhibitor at 4 μg/mL): 0.125 µg/mL | MIC of ceftibuten (CTB) ([6]; with inhibitor at 4 μg/mL): 0.0149 µg/mL | MIC of cefalexin (LEX) ([7]; with inhibitor at 1 μg/mL): 2 µg/mL | MIC of cefdinir (CDR) ([7]; with inhibitor at 1 μg/mL): 2 µg/mL | MIC of cefixime (CFM) ([7]; with inhibitor at 1 μg/mL): 1 µg/mL | MIC of ceftibuten (CTB) ([7]; with inhibitor at 1 μg/mL): 0.5 µg/mL | MIC of cefalexin (LEX) ([7]; with inhibitor at 2 μg/mL): 2 µg/mL | MIC of cefdinir (CDR) ([7]; with inhibitor at 2 μg/mL): 2 µg/mL | MIC of cefixime (CFM) ([7]; with inhibitor at 2 μg/mL): 0.5 µg/mL | MIC of ceftibuten (CTB) ([7]; with inhibitor at 2 μg/mL): 0.125 µg/mL | MIC of cefalexin (LEX) ([7]; with inhibitor at 4 μg/mL): 1 µg/mL | MIC of cefdinir (CDR) ([7]; with inhibitor at 4 μg/mL): 1 µg/mL | MIC of cefixime (CFM) ([7]; with inhibitor at 4 μg/mL): 0.5 µg/mL | MIC of ceftibuten (CTB) ([7]; with inhibitor at 4 μg/mL): 0.25 µg/mL | MIC of cefalexin (LEX) ([8]; with inhibitor at 1 μg/mL): 0.5 µg/mL | MIC of cefdinir (CDR) ([8]; with inhibitor at 1 μg/mL): 0.5 µg/mL | MIC of cefixime (CFM) ([8]; with inhibitor at 1 μg/mL): 0.125 µg/mL | MIC of ceftibuten (CTB) ([8]; with inhibitor at 1 μg/mL): 0.06 µg/mL | MIC of cefalexin (LEX) ([8]; with inhibitor at 2 μg/mL): 0.25 µg/mL | MIC of cefdinir (CDR) ([8]; with inhibitor at 2 μg/mL): 0.25 µg/mL | MIC of cefixime (CFM) ([8]; with inhibitor at 2 μg/mL): 0.5 µg/mL | MIC of ceftibuten (CTB) ([8]; with inhibitor at 2 μg/mL): 0.125 µg/mL | MIC of cefalexin (LEX) ([8]; with inhibitor at 4 μg/mL): 0.25 µg/mL | MIC of cefdinir (CDR) ([8]; with inhibitor at 4 μg/mL): 0.25 µg/mL | MIC of cefixime (CFM) ([8]; with inhibitor at 4 μg/mL): 0.25 µg/mL | MIC of ceftibuten (CTB) ([8]; with inhibitor at 4 μg/mL): 0.06 µg/mL | MIC of cefalexin (LEX) ([9]; with inhibitor at 1 μg/mL): 8 µg/mL | MIC of cefdinir (CDR) ([9]; with inhibitor at 1 μg/mL): 8 µg/mL | MIC of cefixime (CFM) ([9]; with inhibitor at 1 μg/mL): 1 µg/mL | MIC of ceftibuten (CTB) ([9]; with inhibitor at 1 μg/mL): 0.06 µg/mL | MIC of cefalexin (LEX) ([9]; with inhibitor at 2 μg/mL): 4 µg/mL | MIC of cefdinir (CDR) ([9]; with inhibitor at 2 μg/mL): 4 µg/mL | MIC of cefixime (CFM) ([9]; with inhibitor at 2 μg/mL): 1 µg/mL | MIC of ceftibuten (CTB) ([9]; with inhibitor at 2 μg/mL): 0.06 µg/mL | MIC of cefalexin (LEX) ([9]; with inhibitor at 4 μg/mL): 2 µg/mL | MIC of cefdinir (CDR) ([9]; with inhibitor at 4 μg/mL): 2 µg/mL | MIC of cefixime (CFM) ([9]; with inhibitor at 4 μg/mL): 1 µg/mL | MIC of ceftibuten (CTB) ([9]; with inhibitor at 4 μg/mL): 0.06 µg/mL | MIC of cefalexin (LEX) [10]: 1 µg/mL
